Entries after “also recorded” stand apart in the source; their conditions may differ. Read-outs that look alike come from different tables or passages of the source. Starred links: 1 amine or outer side, 2 acyl side, 3 side chain; linkers in the order of their positions; H or OH if unused. Non-standard residues stand in square brackets, D forms with d. Residues, ends and D or L forms follow the SMILES beside them. No end group written: not given here. X1 = CC1=CC(C)=[N+]2C1=C(c1cccc(-c3[nH]c4ccccc4c3C[C@H](N[*:1])C(=O)[*:2])c1)c1c(C)cc(C)n1[B-]2(F)F
How the values were obtained:
[1] = test system: Aspergillus fumigatus (strain CEA10); format: cell-based; settings: for activity / affinity in A. fumigatus, in words: values only in Supplementary Fig. 8 (picture not shown), 9 compared with linear PAF26 (4)
Procedure: The A. fumigatus (strain CEA10, source: FGSC A1163) was grown on Vogel's medium at 37 °C for 5 days before the spores (conidia) were harvested. Peptides 4–8 were incubated at different concentrations with A. fumigatus conidia to reach a final volume of 100 μl per well. The final conidia concentration was 5 × 10^5 cells ml^−1 in 10% Vogel's medium. After 24 h incubation at 37 °C in 96 well-plates, fungal growth was determined by measuring OD610nm in a spectrophotometer. IC50 values were determined using four parameter logistic regression. Data is represented as means±s.e.m from at least three independent experiments with n=3.
Antimicrobial and ha emolysis assays.
Supplementary Figure 4. Determination of IC50 values of BODIPY-labelled peptides 5- 8 in A. fumigatus. Cell viability plots and non- linear regressions for peptides 5 (A), 6 (B), 7 (C) and 8 (D).
Peptides were incubated at different concentrations with A. fumigatus conidia to r each a final volum e of 100 μ L per well. T he final conidia concentration was 5 × 10^5 cells/m L in 10% Vogel’s m edium . After 24 h incubation at 37 °C in 96 well-plates, fungal growth was determ ined by m easuring the optical densit y at 610 nm . The IC50 values were determ ined using four param eter logistic regression. Data represented as m eans ± s.e.m (n=3).
(§1) (1 picture or pasted object on this page, not shown here)

[2] = test system: Escherichia coli (ATCC 25922); assay: In vitro antimicrobial activity (bacterial cell viability, OD600); format: cell-based; settings: 16 h incubation with peptide at its respective IC50 concentration (A. fumigatus), OD600 nm, n=3
Procedure: (§2) P. aeruginosa (ATCC 47085), K. pneumoniae (ATCC BAA1706) and E. coli (ATCC 25922) were grown on Lysogeny Broth (LB) agar plates and stored at 4 °C. For assays, a single colony of bacteria was taken into 10 mL liquid broth and incubated at 37 °C for 16 h. Cultures were centrifuged at 4,000 r.p.m. for 5 min and the pellet was re-suspended in 1 ml of fresh PBS and washed three times. Cultures were reconstituted to 1.0 OD595 nm, then diluted 1:1,000 and incubated with compounds 4–8 at the indicated concentrations (that is, concentrations matching the IC50 values in A. fumigatus for all compounds, except for compounds 3 and 5a where a top concentration of 20 μM was used). Cell viability was monitored over 16 h by measuring OD600 nm in a spectrophotometer. Data is represented as % of cell viability as means from at least two independent experiments with n=3.

[3] = test system: Klebsiella pneumoniae (ATCC BAA1706); assay: as above; format: cell-based; settings: 16 h incubation with peptide at its respective IC50 concentration (A. fumigatus), OD600 nm, n=3
Procedure: as §2

[4] = test system: Pseudomonas aeruginosa (ATCC 47085); assay: as above; format: cell-based; settings: 16 h incubation with peptide at its respective IC50 concentration (A. fumigatus), OD600 nm, n=3
Procedure: as §2

[5] = Chemical stability in human bronchoalveolar lavages; format: in vitro ADME; settings: human bronchoalveolar lavage from patients with acute respiratory distress syndrome, 37 °C; for remaining at 1 h, 20 μM / remaining at 3 h, 20 μM / remaining at 24 h, 20 μM: HPLC-UV (C18); for remaining at 1 h, 20 μM: read-out: chemical stability in human bronchoalveolar lavage, percentage at 1 h (measure not given); for remaining at 3 h, 20 μM: read-out: chemical stability in human bronchoalveolar lavage, percentage at 3 h (measure not given); for remaining at 24 h, 20 μM: read-out: chemical stability in human bronchoalveolar lavage, percentage at 24 h (measure not given)
Procedure: Peptides 5 and 8 (20 μM) were dissolved in human bronchoalveolar lavage samples (total volume: 100 μl) and incubated at 37 °C for the indicated times. Samples were injected into an high-performance liquid chromatography Agilent 1100 separations module connected to a UV detector with a Discovery C18 column (5 μm, 4.6 × 50 mm). Matrix-assisted laser desorption/ionization data was recorded on a Bruker Ultraflex mass spectrometer using sinapinic acid as the matrix.
Supplementary Figure 9 . Stability of cyclic (8) and linear (5) mono-BODIPY labelled peptid es in human bronchoalveolar lavage samples from p atients w ith acute respiratory distress synd rome.
Pept ides were incubat ed in hum an bronchoalveolar lavage sam ples at 37 °C and anal ysed b y H PLC at the tim e points indicated. Arrows point at the peak s corresponding to the intact linear peptide.
as §1

[6] = test system: human lung A549 epithelial cells; assay: MTT cell viability assay; format: cell-based; settings: MTT, 0, 1.25, 2.5, 5 and 10 μM, 4 h at 37 °C, absorbance 570 nm, means ± s.d., n=4
Procedure: Cell viability was determ ined with a TACS® MTT Cell Proliferation assa y (Trevigen) according to the m anufacturer’s instructions. Briefly, hum an lung A549 epithelial cells were plated on 96-well plates the day before the experim ent, reaching 90- 95% confluence on the day of the experim ent. T he peptide 8 was added to the cells at different concentrations (0, 1.25, 2.5, 5 and 10 µM) and incubated at 37 °C for 4 h. After 4 h, cells were washed, treated according to the m anufacturer’s instructions and their absorbance values (570 nm) were m easured in a Syner gy HT spectrophotom eter (Biotek ). Cell viabilit y data was norm alised to the proliferation of cells without addition of the peptide 8.
Supplementary Figure 17. Cell proliferation assays. Viabilit y of hum an lung A549 epithelial cells after incubation with different concentrations of the peptide 8 . D ata r epresented as m eans ± s.d. (n=4).
as §1

human RBCs = assay: Determination of haemolytic activity; format: cell-based; settings: red cells of human, 1 h
Procedure: Erythrocytes were isolated from freshly drawn, anticoagulated human blood and diluted in PBS (1:5). An amount of 50 μl of erythrocyte suspension was added to 50 μl of compounds 4–8 at the indicated concentrations (that is, concentrations matching the IC50 values in A. fumigatus for all compounds, except for compounds 3 and 5a where a top concentration of 20 μM was used). 0.2% Triton X-100 was used as positive control and PBS as negative control. The plate was incubated at 37 °C for 1 h, each well was diluted with 150 μl of PBS and the plate was centrifuged at 1,200g for 15 min. A total of 100 μl of the supernatant from each well was transferred to a fresh plate, and the absorbance at 350 nm was measured in a microplate reader. Data is represented as % of cell viability as means from three independent experiments with n=3.
Supplementary Figure 6. Haemolytic activity of peptides 4-8 in human red blood cells (RBCs).
Peptides 4-8 and T riton X-100 (0.2% as positive control) were incubated with hum an RBCs at 37 °C and their viabilit y was assessed after 1 h. Data repres ented as m eans ± s.d. (n=3). *** for p < 0.001 was determ ined as a statis tically s ignificant difference between the c ell viabilities in PBS (phosphate buffer saline) and in T riton X-100.
as §1

[7] = conidia 5 × 10^5 cells/ml in 10% Vogel's medium, 24 h at 37 °C, OD610 nm, four parameter logistic regression, means±s.e.m., n=3, read-out: IC50 in Aspergillus fumigatus

| Compound | IC50 [1, 7] [nM] | cell viability, Escherichia coli [2] [%] | cell viability, Klebsiella pneumoniae [3] [%] | cell viability, Pseudomonas aeruginosa [4] [%] | also measured |
| --- | --- | --- | --- | --- | --- |
| CC1=CC(C)=[N+]2C1=C(c1cccc(-c3[nH]c4ccccc4c3C[C@H](NC(=O)[C@H](C)NC(=O)[C@H](C)NC(=O)[C@H](C)N)C(=O)N[C@@H](Cc3ccccc3)C(=O)N[C@@H](Cc3c[nH]c4ccccc34)C(N)=O)c1)c1c(C)cc(C)n1[B-]2(F)F [5a] (H-AAA[X1]FW-NH2) | – | – | – | – | activity / affinity in A. fumigatus, in words [1]: poor activity |
| CC1=CC(C)=[N+]2C1=C(c1cccc(-c3[nH]c4ccccc4c3C[C@H](NC(=O)[C@H](CCCCN)NC(=O)[C@H](CCCCN)NC(=O)[C@@H](N)CCCNC(=N)N)C(=O)N[C@@H](C)C(=O)N[C@@H](C)C(N)=O)c1)c1c(C)cc(C)n1[B-]2(F)F [5b] (H-RKK[X1]AA-NH2) | – | – | – | – | activity / affinity in A. fumigatus, in words [1]: reduced activity |
| CC1=CC(C)=[N+]2C1=C(c1cccc(-c3[nH]c4ccccc4c3C[C@H](NC(=O)[C@H](CCCCN)NC(=O)[C@H](CCCCN)NC(=O)[C@@H](N)CCCNC(=N)N)C(=O)N[C@@H](Cc3ccccc3)C(=O)N[C@@H](Cc3c[nH]c4ccccc34)C(N)=O)c1)c1c(C)cc(C)n1[B-]2(F)F [compound 5] (H-RKK[X1]FW-NH2) | 3600 ± 100 | 94 | 87 | > 99 | remaining at 1 h, 20 μM ([5]; peptide 20 μM): 49%; remaining at 3 h, 20 μM ([5]; peptide 20 μM): 2%; remaining at 24 h, 20 μM ([5]; peptide 20 μM): < 1%; half-life at 20 μM ([5]; peptide 20 μM, HPLC-UV): < 60 min |
| CC1=CC(C)=[N+]2C1=C(c1cccc(-c3[nH]c4ccccc4c3C[C@H](NC(=O)[C@H](Cc3ccccc3)NC(=O)[C@H](Cc3c[nH]c4ccccc34)NC(=O)[C@H](CCCCN)NC(=O)[C@H](CCCCN)NC(=O)[C@@H](N)CCCNC(=N)N)C(N)=O)c1)c1c(C)cc(C)n1[B-]2(F)F [compound 6] (H-RKKWF[X1]-NH2) | 3000 ± 100 | 95 | 96 | > 99 | – |
| CC1=CC(C)=[N+]2C1=C(c1cccc(-c3[nH]c4ccccc4c3C[C@H](NC(=O)[C@H](Cc3ccccc3)NC(=O)[C@H](Cc3c(-c4cccc(C5=C6C(C)=CC(C)=[N+]6[B-](F)(F)n6c(C)cc(C)c65)c4)[nH]c4ccccc34)NC(=O)[C@H](CCCCN)NC(=O)[C@H](CCCCN)NC(=O)[C@@H](N)CCCNC(=N)N)C(N)=O)c1)c1c(C)cc(C)n1[B-]2(F)F [compound 7] | 2500 ± 100 | 95 | 93 | > 99 | – |
| CC1=CC(C)=[N+]2C1=C(c1cccc(-c3[nH]c4ccccc4c3C[C@@H]3NC(=O)[C@H](CCCCN)NC(=O)[C@H](CCCCN)NC(=O)[C@H](CCCNC(=N)N)NC(=O)CNC(=O)[C@H](Cc4c[nH]c5ccccc45)NC(=O)[C@H](Cc4ccccc4)NC3=O)c1)c1c(C)cc(C)n1[B-]2(F)F [compound 8] (cyclo(FWGRKK[X1])) | 2000 ± 100 | 96 | 94 | > 99 | affinity for fungal cells compared with peptide 5 ([1]; comparison of IC50 values in A. fumigatus): around two-fold enhanced affinity; stability in human bronchoalveolar lavages, in words ([5]; after 24 h, 20 μM, HPLC-UV): remained intact; remaining at 1 h, 20 μM ([5]; peptide 20 μM): 99%; remaining at 3 h, 20 μM ([5]; peptide 20 μM): 99%; remaining at 24 h, 20 μM ([5]; peptide 20 μM): 95%; cytotoxicity in human lung A549 epithelial cells, in words [6]: No significant differences; also recorded: no cytotoxicity; quantum yield in phospholipid membranes: 30% |
| RKKWFW-NH2 [compound 4, reference compound] | – | > 99 | 93 | > 99 | IC50 ([1]; strain CEA10, 24 h): 7900 ± 200 nM; cell viability, human RBCs (haemolysis) (human RBCs): 99% |

Reference: publication PMC4786873, “Spacer-free BODIPY fluorogens in antimicrobial peptides for direct imaging of fungal infection in human tissue” (Nature Communications, 2016)
